Where a SMILES comes first, the peptide text is derived from it. [ ]: non-standard residue; d: D form. Phe(4-Br) = N[C@@H](Cc1ccc(Br)cc1)C(=O)O; NMeL = CN[C@@H](CC(C)C)C(=O)O; Nle = CCCC[C@H](N)C(=O)O; Aib = CC(C)(N)C(=O)O
What was measured:
NEP [1] = target: T1, NEP (Homo sapiens, UniProt P08473); experiment: Neprilysin degradation assay (LC-MS, quantitative); details: 37° C.
Experimental: (§1) This experiment compared the in vitro NEP stability of the Arg/Leu peptides of the embodiments to native apelin isoforms and their A2 substituted counterparts. Peptides were incubated with recombinant human NEP (rhNEP, Sino Biological) at 37° C. for up to 72 h, and the extent of degradation was analyzed via LC-MS because of the overlapping elution patterns of peptide fragments. […] (McKinnie, S. M. K., et al. ChemBioChem: 17, 1495-1498 (2016)). […] (Dion, N., et al., Biochem. J.: 311, 623-627 (1995); Bateman Jr., R. C., et al., J. Biol. Chem.: 264, 6151-6157 (1989); McMurray, J. J. et al., J. Med.: 371, 993-1004 (2014)).
(§2) Apelin peptides were dissolved in Milli-Q water (1 mM). Recombinant human neprilysin (rhNEP, Sino Biological) was reconstituted in Tris buffer (100 mM Tris, 100 mM NaCl, 10 μM ZnCl2, pH 7.5). To initiate the assay, rhNEP was diluted in Tris buffer (3.1 nM final concentration), and preincubated at 37° C. for 10 minutes prior to the addition of 5 μL of apelin peptide (1 mM) and 1.5 μL internal standard dansyl-Tyr-Val-Gly-OH (1 mM). Aliquots (10 μL) were removed at 0, 1, 4, 24, and 72 h, quenched with 0.1 M EDTA (10 μL), diluted to 100 μL with Milli-Q water and analyzed by LC-MS. Assays were performed in triplicate (n=3) for each time point. Integrated peak areas of the parent apelin peptide and internal standard derived from LC-MS analyses, were extracted using Mass Hunter software (version B.04.00) and compared in positive extracted ion count modus (+EIC, extracted-ion chromatogram). […] (apelin:dansyl-YVG), to the same ratio at the different assay time points. The decrease in apelin:dansyl-YVG ratio was converted to a percentage of cleaved peptide over time.
(§3) The extent of degradation was analyzed via LC-MS because of the overlapping elution patterns of peptide fragments (NEP).
(§4) Native apelin-17 (2) and apelin peptides 5, 54, 56, 57, 58 and 59 were dissolved in Milli-Q water (1 mM). Recombinant human neprilysin (rhNEP, Sino Biological) was reconstituted in Tris buffer (100 mM Tris, 100 mM NaCl, 10 μM ZnCl2, pH 7.5). To initiate the assay, rhNEP was diluted in Tris buffer (3.1 nM final concentration) and preincubated at 37° C. for 10 min prior to the addition of 5 μL of apelin peptide (1 mM) and 1.5 μL of internal standard dansyl-Tyr-Val-Gly-OH (1 mM). Aliquots (10 μL) were removed at 0, 1, 4, 24, and 72 h, quenched with 0.1 M EDTA (10 μL), diluted to 100 μL with Milli-Q water, and analyzed by LC-MS. Assays were performed in triplicate (n=3) for each time point. Integrated peak areas of the parent apelin peptide and internal standard derived from LC-MS analyses were extracted using Mass Hunter software (version B.04.00) and compared in positive extracted ion count modus (+EIC). The extent of proteolysis was determined by comparing the initial (0 h) ratio of the integrated extracted ions of the parent apelin peptide to the internal dansyl-YVG standard (apelin/dansyl-YVG) to the same ratio at the different assay time points. The decrease in apelin/dansyl-YVG ratio was converted to a percentage of cleaved peptide over time.

[2] = target: Recombinant Human Neprilysin (Homo sapiens, UniProt P08473); experiment: Neprilysin qualitative cleavage assay (MALDI-TOF); details: rhNEP 2 ng/μL, 37° C., first degradation products by MALDI-TOF
Sequence of Recombinant Human Neprilysin (P08473 whole entry): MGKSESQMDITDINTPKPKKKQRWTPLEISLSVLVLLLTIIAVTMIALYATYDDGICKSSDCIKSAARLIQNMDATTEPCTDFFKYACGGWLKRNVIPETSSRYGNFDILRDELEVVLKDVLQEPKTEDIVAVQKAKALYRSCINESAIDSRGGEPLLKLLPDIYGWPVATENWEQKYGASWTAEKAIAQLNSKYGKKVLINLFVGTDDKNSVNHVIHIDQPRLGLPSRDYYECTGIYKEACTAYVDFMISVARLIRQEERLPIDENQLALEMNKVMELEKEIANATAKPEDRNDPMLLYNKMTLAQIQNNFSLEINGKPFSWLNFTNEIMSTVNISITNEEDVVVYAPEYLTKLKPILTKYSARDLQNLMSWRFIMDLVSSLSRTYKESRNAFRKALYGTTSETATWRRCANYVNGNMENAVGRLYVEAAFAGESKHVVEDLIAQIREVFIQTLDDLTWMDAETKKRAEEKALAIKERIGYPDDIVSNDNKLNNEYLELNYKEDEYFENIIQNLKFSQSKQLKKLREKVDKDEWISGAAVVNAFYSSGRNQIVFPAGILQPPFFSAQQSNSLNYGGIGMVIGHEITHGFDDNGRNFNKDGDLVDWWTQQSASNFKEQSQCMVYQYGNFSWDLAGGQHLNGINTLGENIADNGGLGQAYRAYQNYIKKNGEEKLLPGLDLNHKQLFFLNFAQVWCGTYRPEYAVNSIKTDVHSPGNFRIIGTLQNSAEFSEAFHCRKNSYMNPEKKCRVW
Experimental: Native apelin-17 (2) and apelin peptides 5, 54, 56, 57, 58 and 59 were dissolved in Milli-Q water (1 mM). Recombinant Human Neprilysin (rhNEP, Sino Biological) was reconstituted in Tris buffer (100 mM Tris, 100 mM NaCl, 10 mM ZnCl2, pH 7.5). To initiate the assays, rhNEP was diluted in Tris buffer to a 2 ng/μL final concentration, and pre-incubated at 37° C. for 10 minutes prior to the addition of 5 μL of apelin peptide (1 mM). Aliquots (1 μL) were taken at 1, 2, 4, 6, 12, 24, 36, and 48 hours and analyzed with MALDI-TOF mass spectrometry to qualitatively determine the time point at which degradation products could be observed.

KLKB1 = KLKB1 (Homo sapiens, UniProt P03952); experiment: In vitro KLKB1 stability (half-life); format: in vitro ADME; set-up: purchased Novoprotein; details: rhKLKB1, 37° C.
Sequence of KLKB1 (P03952 20-638): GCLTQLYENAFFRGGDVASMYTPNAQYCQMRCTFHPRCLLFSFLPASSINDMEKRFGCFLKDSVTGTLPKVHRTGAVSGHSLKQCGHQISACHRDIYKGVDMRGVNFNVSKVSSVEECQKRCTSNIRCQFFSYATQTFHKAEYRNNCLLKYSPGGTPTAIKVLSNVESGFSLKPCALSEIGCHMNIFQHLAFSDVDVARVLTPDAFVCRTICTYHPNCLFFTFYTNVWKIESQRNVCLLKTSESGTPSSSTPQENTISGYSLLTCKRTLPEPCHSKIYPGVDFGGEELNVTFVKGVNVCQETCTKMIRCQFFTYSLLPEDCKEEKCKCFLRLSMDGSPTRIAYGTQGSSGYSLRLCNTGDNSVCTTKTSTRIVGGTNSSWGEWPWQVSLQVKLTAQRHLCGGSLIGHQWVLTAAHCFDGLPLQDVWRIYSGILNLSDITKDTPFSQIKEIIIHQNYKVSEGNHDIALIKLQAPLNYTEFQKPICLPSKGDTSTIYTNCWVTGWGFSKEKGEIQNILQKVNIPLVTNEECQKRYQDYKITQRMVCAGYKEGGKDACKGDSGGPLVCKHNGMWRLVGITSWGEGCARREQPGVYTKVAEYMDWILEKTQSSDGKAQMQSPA

neprilysin (NEP) = neprilysin (NEP) (Homo sapiens, UniProt P08473); experiment: in vitro; details: human, pH 7.5
Sequence of neprilysin (NEP) (P08473 whole entry): as the sequence (P08473 whole entry) above
Experimental: as §1, §2, §3, §4

in vitro = details: human, plasma
NEP [3] = target: T1, NEP; experiment: Neprilysin inhibition assay (degradation of 1 after preincubation with peptide); format: biochemical; set-up: purchased Sino Biological; details: preincubation of NEP with equimolar peptide
Experimental: This experiment investigates the ability of synthetic peptides 8-19 to inhibit the inherent proteolytic activity of NEP.
Assays were performed in duplicate (n=2) for each time point.

T1 sequence (P08473 whole entry, the tested form may be a part, canonical isoform): as the sequence (P08473 whole entry) above

t1/2 (rhNEP, h) (NEP [1]; rhNEP 3.1 nM) [h]	Degradation Onset Timepoint with NEP [2] [min]	t1/2 (rhKLKB1, h) (KLKB1) [h]	half-life (neprilysin (NEP)) [min]	remaining at 0.5 h, 80 µM (in vitro) [%]	remaining at 1 h, 80 µM (in vitro) [%]	Structure (SMILES)	in vitro NEP proteolytic stability (in words) (NEP [1]; rhNEP, up to 72 h, LC-MS)	inhibition of the proteolytic activity of NEP (NEP [3])
0.4	<30	0.4				CSCC[C@H](NC(=O)[C@@H]1CCCN1C(=O)CNC(=O)[C@H](CCCCN)NC(=O)[C@H](Cc1cnc[nH]1)NC(=O)[C@H](CO)NC(=O)[C@H](CC(C)C)NC(=O)[C@H](CCCNC(=N)N)NC(=O)[C@@H]1CCCN1C(=O)[C@H](CCCNC(=N)N)NC(=O)[C@H](CCC(N)=O)NC(=O)[C@H](CCCNC(=N)N)NC(=O)[C@H](CCCNC(=N)N)NC(=O)[C@H](Cc1ccccc1)NC(=O)[C@@H](N)CCCCN)C(=O)N1CCC[C@H]1C(=O)N[C@@H](Cc1ccccc1)C(=O)O [Peptide 2, reference compound]	degraded by NEP at rates comparable to those previously reported	
			> 1800	49 ± 10	47 ± 7	CCCC[C@H](NC(=O)[C@@H]1CCCN1C(=O)CNC(=O)[C@H](CCCCN)NC(=O)[C@H](Cc1c[nH]cn1)NC(=O)[C@H](CO)NC(=O)[C@H](CC(C)C)N(C)C(=O)[C@H](CCCNC(=N)N)NC(=O)[C@@H]1CCCN1C(=O)[C@H](CCCNC(=N)N)NC(=O)[C@H](CCC(N)=O)NC(=O)[C@H](CCCNC(=N)N)NC(=O)[C@H](CCCNC(=N)N)NC(=O)[C@H](Cc1ccccc1)NC(=O)[C@@H](N)CCCCN)C(=O)NC(C)(C)C(=O)N[C@@H](Cc1ccc(Br)cc1)C(=O)O [Peptide 11] (H-KFRRQRPR[NMeL]SHKGP[Nle][Aib][Phe(4-Br)]-OH; C-terminus assumed)		no ability to inhibit the inherent activity of NEP

— patent US10640545B2 (THE GOVERNORS OF THE UNIVERSITY OF ALBERTA, priority 2017, dated 2020)
